Measured values published in US11000501B2, “Composition for preventing or treating neurological and mental disorders, containing syringaresinol” (SEOUL NATIONAL UNIVERSITY R&DB FOUNDATION, priority 2016, dated 2021).

How the values were obtained:
Format in all cases: cell-based, mouse
[1] = tested on: Schaffer collateral (SC)-CA1 synapse of the hippocampus; experiment: fEPSP recording in hippocampal SC-CA1 synapse (hippocampal slices); conditions: for first and second fEPSPs: paired pulse interval 100 ms
Method: A hippocampus slice (400 μm thick) was prepared in a cold dissection buffer using a vibrating machine (Vibratome, Leica, Germany) and then a CA3 region of each slice was removed surgically immediately after the slice formation. In this connection, the cold dissection buffer contained sucrose 230 mM; NaHCO3 25 mM; KCl 2.5 mM; NaH2PO4 1.25 mM; D-glucose 10 mM; Na-ascorbic acid salt 1.3 mM; MgCl2 3 mM; CaCl2 0.5 mM, 95% O2/5% CO2 and had pH 7.4. The slice was recovered in a normal ACSF (artificial cerebrospinal fluid) for 1 hour and then maintained at room temperature (23 to 25° C.) until recording. […] All electrophysiological experiments were performed in a recording chamber while the samples were immersed in the solution in a manner described previously (Song et al., 2017). Signals were amplified using a MultiClamp 700B amplifier (Molecular Devices, CA, USA) at a cut-off frequency of 2.8 kHz and were measured with a Digidata 1440A interface (Molecular Devices) at a 10 kHz sampling frequency. Data were collected using pClamp 10.2 (Molecular Devices) software. The collected data were analyzed with a program created in the lab using Igor Pro (WaveMetrics, OR, USA). To record the field excitatory post-synaptic potential (fEPSP) in the hippocampal SC-CA1 synapse, hippocampal slices were placed in the recording chamber and perfused with ACSF while oxygen was fed continuously to the ACSF. The ACSF was maintained at a temperature of 29 to 30° C. using a heater for perfusion (SH-27B, Warner Instruments, CT, USA). A synapse response was induced by stimulation with a glass pipette (0.3 to 0.5 Mohm) every 20 seconds (0.05 Hz). The synapse response was recorded using a glass pipette (3 to 4 Mohm) filled with ACSF. The intensity of the stimulus was adjusted to produce a synapse response of about ⅓ of the maximum value thereof. The slices with unstable (10%) baseline records were excluded. To investigate the effect of syringaresinol (SYR) on the synaptic transmission, the field excitatory post-synaptic potential (fEPSP) of the Schaffer collateral (SC)-CA1 synapse of the hippocampus of adult mice (4 to 6 weeks of age) was measured. After confirming the stable baseline, different concentrations of SYR were applied thereto using the perfusion solution.

ERK = experiment: Western blot of ERK activity (p-ERK/ERK) in hippocampal slices; conditions: 100, 300 and 500 μM, 10 minutes treatment
Method: After removing the CA3 region from the hippocampal slice surgically, the slices were recovered in the 36° C. and normal ACSF for 4 hours. Each sample was treated with each drug for 10 minutes, and then frozen using liquefied nitrogen. Western blot analysis of drug-induced changes in ERK activity in the hippocampal slices was performed in a manner as previously described (Song et al., 2017). The slices were homogenized using a probe sonicator in a cold lysis buffer about at a temperature of ice. The lysis buffer contained 50 mM HEPES, 100 mM NaCl, 5 mM EGTA, 5 mM EDTA, 1% Triton X-100, a phosphatase inhibitor mixer (GenDEPOT, TX, USA) and a protease inhibitor mixer (Sigma-Aldrich, MO, USA). The total protein concentration of the homogenate was determined by Bradford protein assay (Bio-Rad, CA, USA). Samples containing 10 to 12 μg of protein were separated using SDS-PAGE gels and transferred to the nitrocellulose membrane. The membrane was sequentially reacted with a primary antibody (p-ERK and ERK; Cell Signaling Technologies, MA, USA) and a secondary antibody (Jackson ImmunoResearch, USA) having horse radish peroxidase (HRP) coupled thereto. HRP signals were detected on an enhanced chemiluminescence (ECL) substrate (GE Healthcare, UK) and then quantified with MetaMorph software (Molecular Devices, CA, USA). […]

[2] = tested on: CA1 neurons (inhibitory synaptic transmission); experiment: Evoked IPSC (eIPSC) recording in CA1 neurons; conditions: 100 μM
Description: A stimulating electrode was placed on a radiating layer or a pyramidal cell layer near the target cell. […] […] During eEPSC or eIPSC recording, series resistance and seal resistance were continuously observed using short hyperpolarization pulses (−5 mV, 50 ms). When the resistance was changed by more than 20% during recording, the data was discarded.
SYR […] inhibitory synaptic transmission in CA1 neurons. […] There was no difference between the first eIPSC (t=−0.47, p>0.05) and the second eIPSC (t=−0.33, p>0.05) as measured before and after the application of SYR respectively.

CA1 neurons [3] = experiment: Whole-cell current clamp recording of membrane potential
Description: Next, whole-cell current clamp recordings were used to check the effect of SYR on the membrane potential of CA1 neurons.

CA1 neurons [4] = experiment: Miniature EPSC (mEPSC) recording in CA1 neurons
Method: (§1) A miniature EPSC (mEPSC) was measured at −70 mV with a pipette solution. In this connection, the pipette solution contained 110 mM K-gluconate, 20 mM KCl, 8 mM NaCl, 10 mM HEPES, 0.5 mM QX-314-C1, 4 mM Mg-ATP, 0.3 mM Na-GTP and 0.5 mM EGTA. The solution had pH 7.25 and 290 mOsm/kg. Voluntary action potentials and IPSCs were blocked by TTX (1 μM) and picrotoxin (50 μM), respectively. For mIPSC recording, the K-gluconate in the pipette solution was replaced with the KCl having the same number of moles as the K-gluconate.
Next, the effect of SYR on miniature EPSC (mEPSC) in CA1 neurons was examined.

[5] = tested on: CA1 neurons (inhibitory synaptic transmission); experiment: Miniature IPSC (mIPSC) recording in CA1 neurons
Method: as §1
The effect of SYR on the miniature IPSC (mIPSC) was checked.

**Q.** For COc1cc(C2OCC3C(c4cc(OC)c(O)c(OC)c4)OCC23)cc(OC)c1O (centres unmarked) [SYR, syringaresinol], which “paired-pulse ratio (PPR) of fEPSP” value ([1]; 30 μM and 100 μM, interval 100 ms) is on record?
**A.** Its value is “gradually increased”.

**Q.** What about the “first and second fEPSPs” value ([1]; 30 μM) of the same compound?
**A.** The value was “significantly decreased”.

**Q.** And the “amplitude of fEPSP during SYR perfusion (1 h)” value ([1]; 100 μM, 1 h)?
**A.** The value was “rapidly decreased and then remained stable”.

**Q.** What about the “PPR before vs one hour after application, small inter-pulse interval” value ([1]; 100 μM, interval 200 ms) of the same compound?
**A.** Its value is “significant difference in PPR”.

**Q.** And the “PPR before vs one hour after application, large inter-pulse interval” value ([1]; 100 μM, interval 500 ms)?
**A.** The value was “no difference in PPR”.

**Q.** What about the “first and second fEPSPs” value ([1]; 100 μM) of the same compound?
**A.** The value was “significantly decreased”.

**Q.** What about the inhibition at 500 µM ([1]; Mus musculus, 500 μM of SYR, read-out: maximum inhibition of fEPSP) of the same compound?
**A.** The inhibition at 500 µM was 75.9 ± 1.6%.

**Q.** What about the IC50 ([1]; Mus musculus, SC-CA1 synapse, hippocampal slice, bath perfusion, read-out: IC50 for decrease of slope and amplitude of fEPSP) of the same compound?
**A.** Its IC50 is 90 µM.

**Q.** And the “post-synaptic response (fEPSP)” value ([1]; high concentrations, >10 μM)?
**A.** Its value is “decreased rapidly”.

**Q.** What about the “effect on fEPSP” value ([1]; low concentrations, 1 to 5 μM) of the same compound?
**A.** Its value is “did not affect fEPSP”.

**Q.** And the “PPR and fEPSP after washing the SYR with control solution” value ([1]; washout)?
**A.** Its value is “slowly recovered to baseline”.

**Q.** What about the ERK activity (ERK) of the same compound?
**A.** The ERK activity was “did not affect ERK activity”.

**Q.** And the “ratio of IPSC amplitude induced by paired-pulse stimulation (PPR)” value ([2]; 100 ms interval)?
**A.** The value was “did not change”.

**Q.** What about the “eIPSC amplitude (first and second)” value ([2]; in presence of NBQX and AP-5) of the same compound?
**A.** Its value is “had no effect on eIPSC”.

**Q.** What about the “membrane potential of CA1 neurons” value (CA1 neurons [3]; SYR 100 μM applied extracellularly) of the same compound?
**A.** Its value is “Significant hyperpolarization”.

**Q.** What about the resting membrane potential (CA1 neurons [3]; SYR 100 μM in the pipette solution) of the same compound?
**A.** The resting membrane potential was “did not affect resting membrane potential”.

**Q.** What about the mEPSC amplitude (CA1 neurons [4]) of the same compound?
**A.** Its mEPSC amplitude is “did not change”.

**Q.** And the mEPSC frequency (CA1 neurons [4])?
**A.** Its mEPSC frequency is “did not change”.

**Q.** And the “amplitude of mIPSC” value [5]?
**A.** Its value is “did not affect”.

**Q.** And the “frequency of mIPSC” value [5]?
**A.** The value was “did not affect”.
